From ChEMBL document CHEMBL1781945, “A new series of 3-phenylcoumarins as potent and selective MAO-B inhibitors” (Bioorg Med Chem Lett, 2009)

Columns and labels:
[1] = target: T1, Amine oxidase [flavin-containing] B (Homo sapiens, UniProt P27338); assay: Inhibition of human recombinant MAOB expressed in BTI insect cells using p-tyramine substrate by fluorometric method
T1 sequence (P27338 whole entry): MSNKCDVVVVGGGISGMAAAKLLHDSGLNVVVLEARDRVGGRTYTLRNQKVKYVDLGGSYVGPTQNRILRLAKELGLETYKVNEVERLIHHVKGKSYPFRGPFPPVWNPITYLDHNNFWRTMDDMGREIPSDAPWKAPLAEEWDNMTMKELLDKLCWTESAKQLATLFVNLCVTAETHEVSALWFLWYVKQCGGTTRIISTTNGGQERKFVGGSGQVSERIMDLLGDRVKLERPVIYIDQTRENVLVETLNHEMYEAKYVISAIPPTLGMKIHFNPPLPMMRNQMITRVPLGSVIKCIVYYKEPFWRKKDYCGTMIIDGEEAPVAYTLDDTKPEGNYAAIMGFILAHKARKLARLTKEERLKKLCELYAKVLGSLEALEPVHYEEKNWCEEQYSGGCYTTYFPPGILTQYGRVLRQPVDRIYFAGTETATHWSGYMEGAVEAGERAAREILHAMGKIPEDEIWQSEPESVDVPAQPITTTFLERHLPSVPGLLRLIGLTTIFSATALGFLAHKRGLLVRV

[2] = target: T2, Amine oxidase [flavin-containing] A (Homo sapiens, UniProt P21397); assay: Inhibition of human recombinant MAOA expressed in BTI insect cells at 100 uM using p-tyramine substrate by fluorometric method
T2 sequence (P21397 whole entry): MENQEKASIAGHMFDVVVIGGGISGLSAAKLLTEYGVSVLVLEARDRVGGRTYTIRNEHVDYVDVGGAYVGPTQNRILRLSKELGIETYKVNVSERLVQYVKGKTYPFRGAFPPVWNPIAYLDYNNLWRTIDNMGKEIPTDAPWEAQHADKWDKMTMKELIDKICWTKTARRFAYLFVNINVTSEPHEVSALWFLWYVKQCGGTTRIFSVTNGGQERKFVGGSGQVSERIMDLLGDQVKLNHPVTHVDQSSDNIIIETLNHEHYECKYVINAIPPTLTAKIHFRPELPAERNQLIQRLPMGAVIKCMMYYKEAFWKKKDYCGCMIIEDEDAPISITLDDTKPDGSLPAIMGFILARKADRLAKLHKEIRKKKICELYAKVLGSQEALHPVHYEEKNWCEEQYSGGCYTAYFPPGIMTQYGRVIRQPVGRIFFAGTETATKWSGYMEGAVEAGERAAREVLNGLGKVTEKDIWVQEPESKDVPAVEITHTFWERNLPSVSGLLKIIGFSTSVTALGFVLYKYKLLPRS

Homo sapiens = species: Homo sapiens; assay: Selectivity index, ratio of IC50 for human recombinant MAOA to IC50 for human recombinant MAOB

## Cc1ccc2oc(=O)c(-c3ccccc3)cc2c1
[1]
  IC50: 284 nM
[2]
  inhibition (INH): Not Active
Homo sapiens
  Ratio IC50: > 352

## COc1ccc(-c2cc3cc(C)ccc3oc2=O)cc1
[1]
  IC50: 13.1 nM
[2]
  inhibition (INH): Not Active
Homo sapiens
  Ratio IC50: > 7660

## COc1cc(-c2cc3cc(C)ccc3oc2=O)cc(OC)c1OC
[1]
  IC50: 161 nM
[2]
  inhibition (INH): Not Active
Homo sapiens
  Ratio IC50: > 623

## COc1cc(OC)cc(-c2cc3cc(C)ccc3oc2=O)c1
[1]
  IC50: 8.98 nM
[2]
  inhibition (INH): Not Active
Homo sapiens
  Ratio IC50: > 11100
